Experimental data: ChEMBL document CHEMBL1201862, “PubChem BioAssay data set” (2004)
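Cultured in 96-well plates, cells were exposed to test compound for 48 hours across five concentrations. Here, GI50 denotes the concentration required for 50% inhibition of growth.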 The source made the active and inactive calls. No stated cut-off is given here; in the data, active = GI50 up to about 1.1 µM and inactive = higher.

Legend:
Experiment in all cases: inhibition of tumour cell growth, NCI panel, 48 h
HT-29 = tested on: HT-29
OVCAR-3 = tested on: OVCAR-3
HL-60 = tested on: HL-60
U-251 = tested on: U-251
RXF 393 = tested on: RXF 393
EKVX = tested on: EKVX
UO-31 = tested on: UO-31
LOX IMVI = tested on: LOX IMVI
NCI-H226 = tested on: NCI-H226
SK-MEL-2 = tested on: SK-MEL-2
Hs-578T = tested on: Hs-578T
HOP-62 = tested on: HOP-62
K562 = tested on: K562
TK-10 = tested on: TK-10
IGROV-1 = tested on: IGROV-1
UACC-257 = tested on: UACC-257
OVCAR-5 = tested on: OVCAR-5
RPMI-8226 = tested on: RPMI-8226
M14 = tested on: M14
SK-OV-3 = tested on: SK-OV-3

Measured: GI50

Nc1ccc(Cc2ccc(/N=C\c3ccc(OCc4cccc(COc5ccc(/C=N\c6ccc(Cc7ccc(N)cc7)cc6)cc5)n4)cc3)cc2)cc1
inactive: HT-29 > 100 µM | OVCAR-3 72.3 µM | HL-60 > 100 µM | U-251 41 µM | RXF 393 23.1 µM | EKVX 94.6 µM | UO-31 > 100 µM | LOX IMVI > 100 µM | NCI-H226 > 100 µM | SK-MEL-2 39.2 µM | Hs-578T 65.6 µM | HOP-62 37.5 µM | K562 > 100 µM | TK-10 81.3 µM | IGROV-1 > 100 µM | UACC-257 > 100 µM | OVCAR-5 > 100 µM | RPMI-8226 > 100 µM | M14 > 100 µM

CCOC(=O)C1CCCN1C(=O)c1ccccc1Cl (stereo unspecified)
inactive: HT-29 > 100 µM | OVCAR-3 > 100 µM | HL-60 > 100 µM | U-251 > 100 µM | RXF 393 > 100 µM | EKVX > 100 µM | UO-31 > 100 µM | LOX IMVI > 100 µM | NCI-H226 > 100 µM | Hs-578T > 100 µM | HOP-62 > 100 µM | K562 > 100 µM | TK-10 > 100 µM | IGROV-1 > 100 µM | UACC-257 > 100 µM | OVCAR-5 > 100 µM | RPMI-8226 > 100 µM | M14 > 100 µM

COc1ccc(CCCCl)c(C2=NCCc3cc(OC)c(OC)cc32)c1
inactive: HT-29 36.1 µM | OVCAR-3 92.7 µM | SK-OV-3 > 100 µM | HL-60 27.5 µM | U-251 23.6 µM | RXF 393 54.7 µM | EKVX 53.6 µM | UO-31 38 µM | NCI-H226 27.9 µM | SK-MEL-2 39.7 µM | Hs-578T 32.7 µM | HOP-62 91.2 µM | K562 28.3 µM | TK-10 > 100 µM | IGROV-1 39.9 µM | UACC-257 42.3 µM | OVCAR-5 > 100 µM | RPMI-8226 6.87 µM | M14 43.9 µM

Oc1c2c(c(O)c3ccccc13)C1(N=N2)c2ccccc2Oc2ccccc21
inactive: HT-29 6.11 µM | OVCAR-3 3.01 µM | SK-OV-3 16 µM | HL-60 7.03 µM | U-251 3.9 µM | RXF 393 1.98 µM | EKVX 13 µM | UO-31 6.68 µM | LOX IMVI 2.38 µM | SK-MEL-2 12 µM | Hs-578T 5.56 µM | HOP-62 16 µM | K562 9.91 µM | TK-10 6.98 µM | IGROV-1 2.52 µM | UACC-257 5.71 µM | OVCAR-5 10.2 µM | RPMI-8226 2.88 µM | M14 8.38 µM

CC1=C2C3=C(C)C(=O)C(C)(C)CC[C@@]3(C)[C@]2(C)CCC(C)(C)C1=O
inactive: HT-29 > 100 µM | OVCAR-3 > 100 µM | SK-OV-3 > 100 µM | HL-60 > 100 µM | U-251 > 100 µM | RXF 393 > 100 µM | EKVX > 100 µM | UO-31 > 100 µM | LOX IMVI > 100 µM | NCI-H226 > 100 µM | Hs-578T > 100 µM | HOP-62 > 100 µM | K562 > 100 µM | TK-10 > 100 µM | IGROV-1 > 100 µM | UACC-257 > 100 µM | OVCAR-5 > 100 µM | RPMI-8226 > 100 µM | M14 > 100 µM

O=C(NNC(=O)c1ccc(Cl)cc1NC(=O)C12CC3CC(CC(C3)C1)C2)c1ccc(Cl)cc1
inactive: HT-29 28.2 µM | OVCAR-3 19.5 µM | SK-OV-3 25.3 µM | HL-60 25.7 µM | U-251 20.2 µM | RXF 393 19.5 µM | EKVX 23.2 µM | UO-31 17.1 µM | LOX IMVI 18.5 µM | NCI-H226 22.7 µM | Hs-578T 21.5 µM | HOP-62 19.8 µM | K562 34.9 µM | TK-10 20.1 µM | IGROV-1 15 µM | UACC-257 25.8 µM | OVCAR-5 28.3 µM | RPMI-8226 15.7 µM | M14 21.2 µM

Cc1nn(C(=O)c2ccncc2)c2c1C(c1ccccc1[N+](=O)[O-])SC(=N)N2 (stereo unspecified)
inactive: HT-29 > 10 µM | OVCAR-3 > 10 µM | HL-60 > 10 µM | RXF 393 > 10 µM | EKVX > 10 µM | LOX IMVI > 10 µM | NCI-H226 > 10 µM | SK-MEL-2 > 10 µM | Hs-578T > 10 µM | HOP-62 > 10 µM | K562 > 10 µM | TK-10 > 10 µM | IGROV-1 > 10 µM | UACC-257 > 10 µM | OVCAR-5 > 10 µM | RPMI-8226 > 10 µM | M14 > 10 µM

N#CCc1n[nH]c2nc(SCc3ccccc3)nc(N3CCCCC3)c12
inactive: HT-29 20.3 µM | OVCAR-3 20.7 µM | SK-OV-3 26.4 µM | HL-60 25.8 µM | U-251 18.7 µM | RXF 393 17.1 µM | EKVX 20.5 µM | UO-31 20.1 µM | LOX IMVI 21 µM | SK-MEL-2 20.7 µM | Hs-578T 21.4 µM | HOP-62 20.4 µM | K562 18.6 µM | TK-10 23.1 µM | UACC-257 20.8 µM | OVCAR-5 20.2 µM | RPMI-8226 27.1 µM | M14 19.4 µM

O=C1c2cc(Cl)ccc2-n2cnnc2C2CSCN12 (stereo unspecified)
inactive: HT-29 > 100 µM | OVCAR-3 > 100 µM | SK-OV-3 > 100 µM | U-251 > 100 µM | RXF 393 > 100 µM | EKVX > 100 µM | UO-31 > 100 µM | LOX IMVI > 100 µM | NCI-H226 > 100 µM | SK-MEL-2 > 100 µM | Hs-578T > 100 µM | HOP-62 > 100 µM | K562 > 100 µM | TK-10 > 100 µM | IGROV-1 > 100 µM | UACC-257 > 100 µM | OVCAR-5 > 100 µM | RPMI-8226 > 100 µM | M14 > 100 µM

Cc1ncc([N+](=O)[O-])n1CCNC(=O)CCCn1ccnc1[N+](=O)[O-]
inactive: HT-29 > 100 µM | OVCAR-3 > 100 µM | HL-60 > 100 µM | U-251 > 100 µM | RXF 393 > 100 µM | EKVX > 100 µM | UO-31 > 100 µM | LOX IMVI > 100 µM | NCI-H226 > 100 µM | SK-MEL-2 > 100 µM | Hs-578T > 100 µM | HOP-62 > 100 µM | K562 > 100 µM | TK-10 > 100 µM | IGROV-1 > 100 µM | UACC-257 > 100 µM | OVCAR-5 > 100 µM | RPMI-8226 > 100 µM | M14 > 100 µM
